Test results reported in publication PMC9490060, “Synthesis and evaluation of anticancer activity of quillaic acid derivatives: A cell cycle arrest and apoptosis inducer through NF-κB and MAPK pathways” (Frontiers in Chemistry, 2022).

How the values were obtained:
p38 = assay: Western blot, MAPK signaling pathway: p38; type: cell-based, human; conditions: HCT116, 10 μM, 24 h
Description: Extracellular signal-regulated kinases are the most closely related MAPK. MAPK, a family of serine/threonine protein kinases, is also an important transmitter of signaling from the cell surface to the nucleus, and it is involved in the regulation of many physiological processes, including apoptosis ([Bian et al., 2021]). The MAPK pathway has been implicated in regulating tumor angiogenesis, proliferation, metastasis and invasion ([Ko et al., 2017]). MAPK family is mainly composed of ERK, p38 and JNK subfamily.
FIGURE 9 Effect of compound E on […] in HCT116 cells. Cells were pretreated with the various concentrations of compound E (2.5, 5 and 10 μM) for 24 h. The expression of phospho-ERK, ERK, phospho-JNK, JNK, phospho-p38, p38 were analyzed by Western blot. ***p < 0.001, **p < 0.01, *p < 0.05 vs. control group. The error bars represent the mean ± SD for three independent experiments.
HCT116 cells were cultured with different concentrations of compound E for 24 h. Then, the floating cells were collected and washed twice with ice-cold PBS. Add cold RIPA buffer. After the cells were lysed on ice for 20 min, the lysate was centrifuged at 12,000 rpm for 15 min at 4°C. The BCA method determines the protein concentration. […] The protein is detected by electrochemiluminescence (Bio-Rad, CA, United State).

[1] = test system: L02 (human normal liver cells); assay: Cytotoxicity against normal cell line L02; type: cell-based
Description: The lack of selectivity between normal and cancer cells is one of the main limitations of antitumor drugs ([Dy and Adjei, 2013]). Therefore, we evaluated the cytotoxicity of compounds B2, and E in normal cell lines L02 (human normal liver cells) to determine the selectivity index (ratio of cytotoxicity in L02 cells compared to that in cancer cells). […] Therefore, this compound was chosen for further biological studies.
The propidium iodide (PI) and Annexin V-FITC apoptosis detection kit were purchased from Invitrogen (Eugene, OR, United States). 3-(4,5-Dimethylthiazol-2-yl)-2,5-diphenyl-2H-tetrazolium bromide (MTT) was purchased from Sigma-Aldrich Co. (St. Louis, MO, United States). All human cell lines were used in this study, colorectal cancer cell HCT116, colorectal cancer cell SW620, breast cancer cell MCF-7, liver hepatocellular carcinoma cell BEL7402, liver hepatocellular carcinoma HepG2 and normal liver cell L02 were initially purchased from American Type Culture Collection (ATCC, Manassas, VA, United States). RPMI-1640 media, Dulbecco’s modified Eagle’s medium (DMEM), and foetal bovine serum (FBS) were provided from Gibco Company (Grand Island, NY, United States). Cell line MCF-7 and HepG2 were cultivated in DMEM containing 10% (v/v) heat-inactivated FBS, 100 units/ml penicillin and […] streptomycin (Grand Island, NY, United States). Cell lines HCT116, BEL7402, SW620, and L02 were cultivated in RPMI 1640 medium containing 10% (v/v) heat-inactivated FBS, 100 units/ml penicillin, and […] streptomycin. The cells were incubated at 37°C under a 5% CO2 and 90% relative humidity (RH) atmosphere.
Stock solutions were prepared by diluting target compounds in DMSO at concentrations (1.25, 2.5, 5, and 10 mM). The stock solution was then diluted (1.25, 2.5, 5, and 10 μM) with culture medium, and the concentration of DMSO was controlled not to exceed 0.1%.
Place the cells in a 96-well plate at an appropriate density to ensure exponential growth (1 × 10^4–1.2×10^4 cells per well) throughout the experiment, and then allow the cells to adhere for 24 h. The cells were then treated with continuous concentrations of each compound (1.25, 2.5, 5, and 10 μM) for 48 h. After 48 h of incubation, 15 μl of MTT solution was added to each well, and the final concentration was 2 mg/ml. Then incubate for another 4 h. After incubation, remove the MTT solution and add […] of DMSO to each well for staining. Shake vigorously for 10 min at room temperature to ensure complete dissolution. The optical density (OD) was read on a microplate reader (ELx 800, BioTek, Highland Park, Winooski, VT, United States) with a wavelength of 492 nm, and then the data was analyzed.

Question: What does the source list for CC1(C)CC[C@]2(C(=O)OCCn3nnnc3-c3ccccc3)[C@H](O)C[C@]3(C)C(=CC[C@@H]4[C@@]5(C)CC[C@H](O)[C@@](C)(C=O)[C@@H]5CC[C@]43C)[C@@H]2C1 [Compound E, 2-(5-phenyl-1H-tetrazol-1-yl)ethyl (4aR,5R,6aS,6bR,8aR,9S,10S,12aR,12bR,14bS)-9-formyl-5,10-dihydroxy-2,2,6a,6b,9,12a-hexamethyl-1,3,4,5,6,6a,6b,7,8,8a,9,10,11,12,12a,12b,13,14b-octadecahydropicene-4a (2H)-carboxylate]?
Answer: phosphorylation level of p38 (p38): down-regulated; IC50 ([1]; Homo sapiens, normal cell line L02): > 10 µM; Selectivity index BEL7402 ([1]; IC50 on normal cells (L02)/IC50 on tumour cells (BEL7402)): > 1.45; Selectivity index HCT116 ([1]; IC50 on normal cells (L02)/IC50 on tumour cells (HCT116)): > 4.06; Selectivity index HepG2 ([1]; IC50 on normal cells (L02)/IC50 on tumour cells (HepG2)): > 1.12; Selectivity index SW620 ([1]; IC50 on normal cells (L02)/IC50 on tumour cells (SW620)): > 2.13
